Laboratory results: publication PMC11423305, “Structure-Based Design of CBP/EP300 Degraders: When Cooperativity Overcomes Affinity” (JACS Au, 2024)

Assays:
Format in all cases: cell-based
EP300 = molecular target: T1, EP300 (Homo sapiens, UniProt Q09472); test: Quantification of EP300 degradation by Western blotting in LP1 cells; conditions: 5 μM compound, 16 h, Western blot
T1 construct: quantification of CBP and EP300 levels by Western blotting following 16 h treatment of LP1 cells; endogenous in cells; host or cells: LP1 cells
Method: (§1) LP1 cells were cultured in DMEM (Gibco, 41966-029) supplemented with 15 % FBS (Sigma, F9665); MM1S and LNCaP cells in RPMI 1640 ATCC modification (Gibco, […]
(§2) DMEM/F12 (Gibco, 11320074) supplemented with 1 % non-essential amino acids […]
additionally supplemented with 1 % penicillin/streptomycin (Gibco, 15070-063), and cells maintained in a humidified incubator with 5 % CO2 at 37 °C. The identity of all lines (except for MM1S which were recently purchased from ATCC) was authenticated by STR profiling (performed by Microsynth).
(§3) Quantification of CBP/EP300 degradation by Western blotting
LP1 cells plated on 6 well plates were treated with the stated compounds at a final concentration of 0.1 % DMSO for the stated time. Cells were harvested on ice, washed in PBS and lysed in RIPA buffer (50 mM tris pH 7.5, 2 mM EDTA, 150 mM NaCl, 0.5 % sodium deoxycholate, 1 % Triton X100) supplemented with cOmplete ™ protease inhibitor cocktail (Roche). Protein concentrations were determined using the Pierce ™ BCA Protein Assay Kit (Thermo Scientific, 23227) and equal amounts were separated on 4-12 % ExpressPl us™ PAGE gels (GenScript, M41215). Proteins were transferred to PVDF membranes, the membranes were blocked with 5 % milk (Merk Millipore, 115363) in PBS-T and proteins were stained with the following antibodies at 4 °C overnight: CBP […]
BRD4 (Bethyl Laboratories, A301-985A50, diluted 1:2000) and vinculin (Invitrogen, 42H89L44, diluted 1:1000). For detection, membranes were incubated for 1 h at room temperature with HRP-conjugated secondary antibodies (Southern Biotech, anti-rabbit […]
SuperSignal™ West Pico PLUS Chemiluminescent Substrate (Thermo Scientific, 34580) and the Vilber Fusion-FX7 imager. Bands were quantified using ImageJ software and protein levels normalized to protein from DMSO treated cells run on the same membrane. For dose response curves, data was fitted using a four -parameter dose-response curve in GraphPad Prism v. 9.5.1, where the top is fixed at 100 %. The DC50 was defined as the PROTAC concentration resulting in 50 % remaining protein. […]

BRD4 = molecular target: T2, BRD4 (Homo sapiens, UniProt O60885); test: Global proteomics / Western blot of BRD4 level; conditions: LP1 and MM1S cells, 16 h, 1 μM; verified by Western blot
T2 construct: Western blot masurement of BRD4 levels in LP1 cells treated for 16 h with; endogenous in cells; host or cells: LP1 and MM1S cells
Method: cooperativity factor (α) was defined as the ratio of the IC50 values in the absence and […]
For the ternary complex experiments, the final assay composition was: 0.1 % DMSO, 5 nM GST-CBP, 5 nM CRBN-Avi(biotin), 100 mM KF, 0.625 nM XL665-Streptavidin conjugate and 0.8 nM anti-GST mAb – Eu3+-cryptate. The maximal control contained 40 nM dCBP-1, the blank contained no PROTAC. Hook curves were generated by normalization to the maximal control.
as §1, §2, §3
LP1 cells plated on 6 well plates were treated with the stated compounds at a final concentration of 0.1 % DMSO for the stated time. […] Protein concentrations were determined using the Pierce ™ BCA Protein Assay Kit (Thermo Scientific, 23227) and equal amounts were separated on 4-12 % ExpressPl us™ PAGE gels (GenScript, M41215). […]
SuperSignal™ West Pico PLUS Chemiluminescent Substrate (Thermo Scientific, 34580) and the Vilber Fusion-FX7 imager. Bands were quantified using ImageJ software and protein levels normalized to protein from DMSO treated cells run on the same membrane. […]

CBP/EP300 = test: Western blot of CBP and EP300 levels in various cell lines; conditions: 16 h, 1 μM

T1 sequence (Q09472 whole entry): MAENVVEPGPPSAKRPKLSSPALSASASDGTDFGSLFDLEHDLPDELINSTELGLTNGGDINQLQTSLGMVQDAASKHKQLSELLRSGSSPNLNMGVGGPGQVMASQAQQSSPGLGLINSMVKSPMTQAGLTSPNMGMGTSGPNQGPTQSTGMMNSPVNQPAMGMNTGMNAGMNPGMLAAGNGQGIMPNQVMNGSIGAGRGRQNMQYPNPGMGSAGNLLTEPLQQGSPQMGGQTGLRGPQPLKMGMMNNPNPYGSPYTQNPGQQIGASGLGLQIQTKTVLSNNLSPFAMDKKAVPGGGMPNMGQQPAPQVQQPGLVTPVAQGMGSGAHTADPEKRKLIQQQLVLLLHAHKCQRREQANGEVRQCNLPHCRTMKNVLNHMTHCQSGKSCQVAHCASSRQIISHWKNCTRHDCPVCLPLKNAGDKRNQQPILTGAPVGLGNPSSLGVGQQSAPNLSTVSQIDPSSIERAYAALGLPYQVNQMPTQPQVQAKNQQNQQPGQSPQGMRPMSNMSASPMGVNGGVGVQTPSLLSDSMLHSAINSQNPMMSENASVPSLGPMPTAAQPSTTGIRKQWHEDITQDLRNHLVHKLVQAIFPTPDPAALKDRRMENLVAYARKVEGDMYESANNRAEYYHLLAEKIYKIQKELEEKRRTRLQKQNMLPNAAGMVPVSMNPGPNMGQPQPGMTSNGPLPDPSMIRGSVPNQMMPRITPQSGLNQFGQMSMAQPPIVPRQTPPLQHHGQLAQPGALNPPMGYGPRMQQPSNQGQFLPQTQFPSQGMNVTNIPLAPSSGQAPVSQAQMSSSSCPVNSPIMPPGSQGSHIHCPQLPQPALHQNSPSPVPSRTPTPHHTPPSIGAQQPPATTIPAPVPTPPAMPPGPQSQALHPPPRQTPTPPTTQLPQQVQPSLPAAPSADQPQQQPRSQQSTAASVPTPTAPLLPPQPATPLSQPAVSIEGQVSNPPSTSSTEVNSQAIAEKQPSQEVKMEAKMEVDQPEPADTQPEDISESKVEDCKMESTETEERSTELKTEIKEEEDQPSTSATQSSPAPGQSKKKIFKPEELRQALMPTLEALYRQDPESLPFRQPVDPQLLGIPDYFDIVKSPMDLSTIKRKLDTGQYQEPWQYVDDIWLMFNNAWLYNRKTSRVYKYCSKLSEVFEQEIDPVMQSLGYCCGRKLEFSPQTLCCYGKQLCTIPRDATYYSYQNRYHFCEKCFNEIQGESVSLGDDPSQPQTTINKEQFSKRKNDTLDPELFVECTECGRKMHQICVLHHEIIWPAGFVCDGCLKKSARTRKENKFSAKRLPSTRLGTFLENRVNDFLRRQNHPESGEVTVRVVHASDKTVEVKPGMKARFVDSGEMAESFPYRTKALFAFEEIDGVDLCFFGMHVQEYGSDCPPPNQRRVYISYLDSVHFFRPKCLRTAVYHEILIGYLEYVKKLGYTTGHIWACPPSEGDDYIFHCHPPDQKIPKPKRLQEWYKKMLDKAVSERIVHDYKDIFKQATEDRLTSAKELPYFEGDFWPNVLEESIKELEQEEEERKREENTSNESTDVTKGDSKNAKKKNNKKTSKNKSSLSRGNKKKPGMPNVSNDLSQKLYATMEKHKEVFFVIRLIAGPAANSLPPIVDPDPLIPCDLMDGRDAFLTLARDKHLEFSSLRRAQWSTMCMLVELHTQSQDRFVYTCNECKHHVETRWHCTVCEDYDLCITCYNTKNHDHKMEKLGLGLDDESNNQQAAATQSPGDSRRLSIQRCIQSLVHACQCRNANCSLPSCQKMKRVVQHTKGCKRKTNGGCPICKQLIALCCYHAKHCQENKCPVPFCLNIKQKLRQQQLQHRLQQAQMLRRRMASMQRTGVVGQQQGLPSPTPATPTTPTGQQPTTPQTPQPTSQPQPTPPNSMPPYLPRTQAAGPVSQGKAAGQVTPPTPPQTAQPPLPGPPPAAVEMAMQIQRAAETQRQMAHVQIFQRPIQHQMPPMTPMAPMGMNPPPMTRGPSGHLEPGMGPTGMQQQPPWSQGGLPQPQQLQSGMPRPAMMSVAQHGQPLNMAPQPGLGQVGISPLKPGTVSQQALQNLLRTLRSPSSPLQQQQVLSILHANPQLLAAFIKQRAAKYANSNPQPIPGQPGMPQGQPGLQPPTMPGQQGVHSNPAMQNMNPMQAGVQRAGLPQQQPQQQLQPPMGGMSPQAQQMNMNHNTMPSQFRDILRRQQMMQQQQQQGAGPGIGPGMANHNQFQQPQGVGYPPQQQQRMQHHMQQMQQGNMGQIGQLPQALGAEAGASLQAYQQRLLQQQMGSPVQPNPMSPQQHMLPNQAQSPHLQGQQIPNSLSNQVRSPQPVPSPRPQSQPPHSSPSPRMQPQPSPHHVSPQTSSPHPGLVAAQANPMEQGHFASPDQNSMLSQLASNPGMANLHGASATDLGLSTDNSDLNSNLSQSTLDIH

Cc1cc2c(NC(=O)c3cc(NC(=O)CCCCCCCCCCNc4cccc5c4C(=O)N(C4CCC(=O)NC4=O)C5=O)cc(-c4ccn(C)n4)c3)cccc2nn1 (stereo not drawn) [dCE-2]
% remaining EP300 (EP300): 43% | level of BRD4 (BRD4): not changed | CBP/EP300 degradation in MM1S, LNCaP and SH-SY5Y cells (CBP/EP300): active degrader
